Measured values reported in patent US7947732B2, “Therapeutic substituted chlorocyclopentanols” (Allergan, Inc., priority 2007, dated 2011).
Structures can show the parent of a compound that is named as a salt. Where two headings read alike, the source gives them in different places. Values belong to the compound of their own block, whether it stands above or below them.

Columns and labels:
hTP = molecular target: T1, hTP (Homo sapiens, UniProt P21731); test: Other receptors functional EC50: hTP; format: cell-based
T1 sequence (P21731 1-343): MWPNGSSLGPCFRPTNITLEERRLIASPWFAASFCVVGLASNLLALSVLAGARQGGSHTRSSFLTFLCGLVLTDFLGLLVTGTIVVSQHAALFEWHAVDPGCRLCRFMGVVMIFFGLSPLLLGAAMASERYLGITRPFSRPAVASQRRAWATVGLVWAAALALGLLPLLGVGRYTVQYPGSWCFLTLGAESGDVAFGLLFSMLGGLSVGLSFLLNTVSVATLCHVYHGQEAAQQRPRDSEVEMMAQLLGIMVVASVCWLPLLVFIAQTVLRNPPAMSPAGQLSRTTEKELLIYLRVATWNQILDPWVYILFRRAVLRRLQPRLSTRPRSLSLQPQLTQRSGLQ
Excerpt: (§1) U.S. patent application Ser. No. 11/553,143, filed on Oct. 26, 2006, now issued as U.S. Pat. No. 7,427,685 incorporated by reference herein, describes the methods used to obtain the in vitro data in the tables below.

hDP = molecular target: T2, hDP (Homo sapiens, UniProt Q13258); test: Other receptors functional EC50: hDP; format: cell-based
T2 sequence (Q13258 1-359): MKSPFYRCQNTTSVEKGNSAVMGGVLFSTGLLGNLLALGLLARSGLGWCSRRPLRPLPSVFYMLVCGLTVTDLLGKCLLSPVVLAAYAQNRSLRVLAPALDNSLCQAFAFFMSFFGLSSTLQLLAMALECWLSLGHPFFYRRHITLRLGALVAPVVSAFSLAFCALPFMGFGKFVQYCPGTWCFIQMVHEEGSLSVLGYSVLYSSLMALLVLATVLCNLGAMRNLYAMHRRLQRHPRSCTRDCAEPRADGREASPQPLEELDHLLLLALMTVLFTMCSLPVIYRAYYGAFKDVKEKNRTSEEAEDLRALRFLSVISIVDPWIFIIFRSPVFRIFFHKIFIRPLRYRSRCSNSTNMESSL
Excerpt: as §1

normotensive dogs [1] = test: Intraocular pressure in normotensive dogs; format: in vivo; conditions: once daily for 5 days
Excerpt: (§2) U.S. Pat. No. 7,091,231 describes the methods used for these in vivo tests.

normotensive dogs [2] = test: Ocular surface hyperemia in normotensive dogs; format: in vivo; set-up: scale not given here
Excerpt: as §2

EP2 [3] = molecular target: T3, EP2 (Homo sapiens, UniProt P43116); test: EP2 flipr functional assay; format: cell-based
T3 sequence (P43116 whole entry): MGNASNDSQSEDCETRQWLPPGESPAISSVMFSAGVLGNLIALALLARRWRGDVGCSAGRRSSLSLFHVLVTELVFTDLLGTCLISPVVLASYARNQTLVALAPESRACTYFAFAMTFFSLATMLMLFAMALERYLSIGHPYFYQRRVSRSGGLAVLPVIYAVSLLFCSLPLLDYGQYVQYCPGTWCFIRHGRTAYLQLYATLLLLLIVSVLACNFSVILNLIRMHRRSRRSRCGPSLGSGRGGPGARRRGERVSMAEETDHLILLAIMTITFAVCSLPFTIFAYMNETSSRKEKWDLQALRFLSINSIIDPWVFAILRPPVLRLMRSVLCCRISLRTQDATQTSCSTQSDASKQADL
Excerpt: as §1

EP2 [4] = molecular target: T3, EP2; test: EP2 cAMP assay; format: cell-based
Excerpt: as §1

EP2 [5] = molecular target: T3, EP2; test: EP2 binding (KI)
Excerpt: as §1

EP4 [6] = molecular target: T4, EP4 (Homo sapiens, UniProt P35408); test: EP4 flipr functional assay; format: cell-based; conditions: read-out: EP4 data filpr EC50
T4 sequence (P35408 whole entry): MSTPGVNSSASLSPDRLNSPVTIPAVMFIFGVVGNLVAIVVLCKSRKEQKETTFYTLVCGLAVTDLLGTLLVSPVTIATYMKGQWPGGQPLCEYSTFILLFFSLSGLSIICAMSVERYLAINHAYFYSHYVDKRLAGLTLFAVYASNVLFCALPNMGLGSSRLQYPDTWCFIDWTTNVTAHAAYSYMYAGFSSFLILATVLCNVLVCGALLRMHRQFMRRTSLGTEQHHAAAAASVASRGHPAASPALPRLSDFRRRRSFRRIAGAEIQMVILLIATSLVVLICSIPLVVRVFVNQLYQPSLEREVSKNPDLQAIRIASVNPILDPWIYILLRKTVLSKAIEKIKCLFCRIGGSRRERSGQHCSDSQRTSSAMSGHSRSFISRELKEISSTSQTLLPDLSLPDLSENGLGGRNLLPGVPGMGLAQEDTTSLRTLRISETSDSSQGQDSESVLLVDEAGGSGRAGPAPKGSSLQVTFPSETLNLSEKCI
Excerpt: as §1

EP4 [7] = molecular target: T4, EP4; test: EP4 binding (KI)
Excerpt: as §1

hEP3A = molecular target: T5, hEP3A (Homo sapiens, UniProt P43115); test: Other receptors functional EC50: hEP3A; format: cell-based
T5 sequence (P43115 1-390): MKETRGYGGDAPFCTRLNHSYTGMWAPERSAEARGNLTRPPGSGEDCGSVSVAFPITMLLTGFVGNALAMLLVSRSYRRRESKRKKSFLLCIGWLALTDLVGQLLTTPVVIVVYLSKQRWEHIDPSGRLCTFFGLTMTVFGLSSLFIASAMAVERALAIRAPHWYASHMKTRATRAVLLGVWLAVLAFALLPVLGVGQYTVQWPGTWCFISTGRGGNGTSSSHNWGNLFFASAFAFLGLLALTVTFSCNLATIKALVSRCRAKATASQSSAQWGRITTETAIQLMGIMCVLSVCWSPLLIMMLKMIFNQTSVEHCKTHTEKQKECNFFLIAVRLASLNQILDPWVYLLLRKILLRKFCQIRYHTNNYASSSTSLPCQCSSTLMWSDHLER
Excerpt: as §1

[8] = 0.001%, once daily for 5 days, at 50 h

EC50 (hTP): 5.31 µM
EC50 (hDP): 9.69 µM
SMILES: O=C(O)c1ccc(CCC[C@@H]2[C@@H](CSc3cc(F)cc(F)c3)[C@H](O)C[C@H]2Cl)s1

maximum ocular surface hyperemia (OSH) score (normotensive dogs [2]; 0.0005%, once daily for 5 days, at 98 h): 1.25
SMILES: CCN(CC)CCOC(=O)c1ccc(CCC[C@@H]2[C@@H](CCc3cc(Cl)cc(Cl)c3)[C@H](O)C[C@H]2Cl)s1 [2-(Diethylamino)ethyl 5-(3-((1R,2R,3R,5R)-5-chloro-2-(3,5-dichlorophenethyl)-3-hydroxycyclopentyl)propyl)thiophene-2-carboxylate hydrochloride]
maximum intraocular pressure (IOP) decrease from baseline (normotensive dogs [1]; 0.0005%, at 28 h): 5.3 mmHg
inhibition in vivo at 0.0005 % (normotensive dogs [1]; Canis lupus familiaris, 0.0005%, at 28 h, read-out: maximum intraocular pressure (IOP) decrease from baseline): 33%

maximum ocular surface hyperemia (OSH) score (normotensive dogs [2]; 0.001%, once daily for 5 days, at 28 h): 1.8
SMILES: CCN(CC)CCOC(=O)c1ccc(CCC[C@@H]2[C@@H](CCc3cc(Cl)cc(Cl)c3)[C@H](O)C[C@H]2Cl)s1 [2-(Diethylamino)ethyl 5-(3-((1R,2R,3R,5R)-5-chloro-2-(3,5-dichlorophenethyl)-3-hydroxycyclopentyl)propyl)thiophene-2-carboxylate]
maximum intraocular pressure (IOP) decrease from baseline (normotensive dogs [1]; 0.001%, at 78 h): 6.9 mmHg
inhibition in vivo at 0.001 % (normotensive dogs [1]; Canis lupus familiaris, 0.001%, at 78 h, read-out: maximum intraocular pressure (IOP) decrease from baseline): 47%

maximum ocular surface hyperemia (OSH) score (normotensive dogs [2]; 0.0001%, once daily for 5 days, at 74 h): 0.8
maximum ocular surface hyperemia (OSH) score (normotensive dogs [2]; 0.0005%, once daily for 5 days, at 50 h): 1.75
maximum ocular surface hyperemia (OSH) score (normotensive dogs [2]; [8]): 1.8
maximum ocular surface hyperemia (OSH) score (normotensive dogs [2]; 0.01%, once daily for 5 days, at 26 h): 2.5
SMILES: O=C(O)c1ccc(CCC[C@@H]2[C@@H](CCc3cc(Cl)cc(Cl)c3)[C@H](O)C[C@H]2Cl)s1 [5-(3-((1R,2R,3R,5R)-5-chloro-2-(3,5-dichlorophenethyl)-3-hydroxycyclopentyl)propyl)thiophene-2-carboxylic acid]

maximum ocular surface hyperemia (OSH) score (normotensive dogs [2]; 0.005%, once daily for 5 days, at 30 h): 1.4
SMILES: O=C(O)c1ccc(CCC[C@@H]2[C@@H](C[S+]([O-])c3cc(Cl)cc(Cl)c3)[C@H](O)C[C@H]2Cl)s1 (stereo partly drawn) [5-(3-((1R,2R,3R,5R)-5-chloro-2-((3,5-dichlorophenylsulfinyl)methyl)-3-hydroxycyclopentyl)propyl)thiophene-2-carboxylic acid]
maximum intraocular pressure (IOP) decrease from baseline (normotensive dogs [1]; 0.005%, at 4 h): 3.1 mmHg
inhibition in vivo at 0.005 % (normotensive dogs [1]; Canis lupus familiaris, 0.005%, at 4 h, read-out: maximum intraocular pressure (IOP) decrease from baseline): 21%

maximum ocular surface hyperemia (OSH) score (normotensive dogs [2]; 0.01%, once daily for 5 days, at 52 h): 1.7
SMILES: O=C(O)c1ccc(CCC[C@@H]2[C@@H](CSc3cc(Cl)cc(Cl)c3)[C@H](O)C[C@H]2Cl)s1 [5-(3-((1R,2R,3R,5R)-5-chloro-2-((3,5-dichlorophenylthio)methyl)-3-hydroxycyclopentyl)propyl)-thiophene-2-carboxylic acid]
maximum intraocular pressure (IOP) decrease from baseline (normotensive dogs [1]; 0.01%, at 6 h): 6.3 mmHg
inhibition in vivo at 0.01 % (normotensive dogs [1]; Canis lupus familiaris, 0.01%, at 6 h, read-out: maximum intraocular pressure (IOP) decrease from baseline): 35%

maximum ocular surface hyperemia (OSH) score (normotensive dogs [2]; 0.001%, once daily for 5 days, at 76 h): 1.5
SMILES: O=C(O)c1ccc(CCC[C@@H]2[C@@H](CNc3cc(Cl)cc(Cl)c3)[C@H](O)C[C@H]2Cl)s1 [5-(3-((1R,2S,3R,5R)-5-chloro-2-((3,5-dichlorophenylamino)methyl)-3-hydroxycyclopentyl)propyl)thiophene-2-carboxylic acid]
maximum intraocular pressure (IOP) decrease from baseline (normotensive dogs [1]; 0.001%, at 6 h): 2.6 mmHg
inhibition in vivo at 0.001 % (normotensive dogs [1]; Canis lupus familiaris, 0.001%, at 6 h, read-out: maximum intraocular pressure (IOP) decrease from baseline): 18%

maximum ocular surface hyperemia (OSH) score (normotensive dogs [2]; 0.01%, once daily for 5 days, at 74 h): 0.8
SMILES: O=C(O)CCCCCC[C@@H]1[C@@H](CCc2cc(Cl)cc(Cl)c2)[C@H](O)C[C@H]1Cl [7-{(1R,2R,3R,5R)-5-Chloro-2-[2-(3,5-dichloro-phenyl)-ethyl]-3-hydroxy-cyclopentyl}-heptanoic acid]

maximum ocular surface hyperemia (OSH) score (normotensive dogs [2]; 0.001%, once daily for 4 days, at 74 h): 1.9
SMILES: O=C(O)c1ccc(CCC[C@@H]2[C@@H](CCc3cc(Cl)nc(Cl)c3)[C@H](O)C[C@H]2Cl)s1 [11b, 5-(3-((1R,2R,3R,5R)-5-chloro-2-(2-(2,6-dichloropyridin-4-yl)ethyl)-3-hydroxycyclopentyl)propyl)-thiophene-2-carboxylic acid]

maximum ocular surface hyperemia (OSH) score (normotensive dogs [2]; [8]): 0.8
SMILES: O=C(O)c1ccc(CCC[C@@H]2[C@@H](CCc3cc(Cl)cc(CO)c3)[C@H](O)C[C@H]2Cl)s1 [11c, 5-(3-((1R,2R,3R,5R)-5-chloro-2-(3-chloro-5-(hydroxymethyl)phenethyl)-3-hydroxycyclopentyl)propyl)thiophene-2-carboxylic acid]

maximum ocular surface hyperemia (OSH) score (normotensive dogs [2]; 0.001%, once daily for 5 days, at 26 h): 0.9
SMILES: CC(C)OC(=O)c1ccc(CCC[C@@H]2[C@@H](CCc3cc(Cl)cc(CO)c3)[C@H](O)C[C@H]2Cl)s1 [Isopropyl 5-(3-((1R,2R,3R,5R)-5-chloro-2-(3-chloro-5-(hydroxymethyl)phenethyl)-3-hydroxycyclopentyl)propyl)thiophene-2-carboxylate]

EC50 (EP2 [3]): 0.02 µM
EC50 (EP2 [4]): 90 pM
Ki (EP2 [5]): 0.0015 µM
EC50 (EP4 [6]): 5.58 µM
Ki (EP4 [7]): 0.678 µM
EC50 (hEP3A): 7.14 µM
SMILES: O=C(O)c1ccc(CCC[C@@H]2[C@@H](CNc3cc(Cl)cc(Cl)c3)[C@H](O)C[C@H]2Cl)s1 [drawing 6]

Ki (EP4 [7]): > 1 µM
SMILES: O=C(O)c1ccc(CCC[C@@H]2[C@@H](C[S+]([O-])c3cc(Cl)cc(Cl)c3)[C@H](O)C[C@H]2Cl)s1 (some centres unmarked) [drawing 8]
